According to patent publication US20120040916A1, “MOLECULAR INHIBITORS OF THE WNT/BETA-CATENIN PATHWAY” (MASSACHUSETTS INSTITUTE OF TECHNOLOGY, priority 2008, published 2012):

Columns and labels:
[1] = tested on: nuclear β-catenin in B16 cells; test: Immunofluorescent staining of β-catenin in B16 cells; assay type: cell-based, murine
Description: A polyclonal rabbit anti-β-catenin antibody was used for detection of β-catenin (1:1000 dilution for immunoblot, 1:200 dilution for immunohistochemistry). Cells were grown on 18 mm glass coverslips, for 48-72 hours, fixed using 4% paraformaldehyde, permeabilized using 0.25% Triton X-100, and then blocked with 10% goat serum. Goat anti-rabbit Alexa Fluor-568 antibody (Molecular Probes; Eugene, Oreg.) was diluted 1:1000. Cells were counterstained for nucleic acid with DAPI (Molecular Probes; Eugene, Oreg.). Paraffin-embedded nevus sections were stained using an antibody dilution of 1:200. Cellular lysates were obtained by lysing cells on plate with a 0.1% NP-40 based buffer and analyzed by NuPage 4-12% gradient gels (Invitrogen; Grand Island, N.Y.). The WNT5A antibody was obtained from Cell Signaling Technologies (Danvers, Mass.).

[2] = tested on: B16 melanoma cells; test: MTT proliferation assay of B16 melanoma cells; assay type: cell-based, murine
[3] = tested on: Wnt/β-catenin pathway (Axin2) in B16 cells; test: Quantitative PCR of Axin2 in B16 cells; assay type: cell-based, murine
Description: Cells were cultured for approximately 72 hours until they reached 80-90% confluency. RNA was purified using the RNeasy kit using the manufacturer's protocol (Qiagen; Maryland, MD). cDNA was synthesized using Superscript Reverse Transcriptase (Invitrogen; Grand Island, N.Y.). Light Cycler FastStart DNA Master SYBR Green1 (Roche; Mannheim, Germany) was used for real-time PCR as previously described (Major et al., Science 316:1043 (2007), which is hereby incorporated by reference in its entirety). Quantitative PCR results presented in the manuscript are representative of experiments performed on a minimum of three biologic replicates.

[4] = tested on: human melanoma cell lines; test: Proliferation of human melanoma cell lines (hematocytometer or MTT assay); assay type: cell-based; settings: 10 mM lithium chloride, 3-7 days, FIG. 4D

SMILES	Nuclear β-catenin by immunofluorescent staining ([1]; 1 μM BIO vs DMSO, FIG. 5B)	Proliferation by MTT assay ([2]; 1 μM BIO vs control cells, FIG. 5F)	Axin2 levels by quantitative PCR ([3]; 1 μM BIO vs control cells, FIG. 5D)	Nuclear β-catenin by immunofluorescent staining ([1]; 10 mM lithium chloride vs 10 mM sodium chloride, FIG. 5A)	Proliferation by MTT assay ([2]; 10 mM lithium chloride vs control cells, FIG. 5E)	Proliferation, normalized to growth in 10 mM sodium chloride [4]	Axin2 levels by quantitative PCR ([3]; 10 mM lithium chloride vs control cells, FIG. 5C)
O=C1Nc2cc(Br)ccc2/C1=C1/Nc2ccccc2/C1=N\O [BIO]	increased nuclear β-catenin	decreased proliferation	increased Axing levels	–	–	–	–
[Cl-].[Li+] [lithium chloride]	–	–	–	increased nuclear β-catenin	decreased proliferation	inhibited proliferation in all human melanoma cell lines tested	increased Axing levels
